For two molecules, IC50 results are on record in ChEMBL document CHEMBL2440048 (J Med Chem, 2013).

As usually defined, the IC50 is the concentration that inhibits the measured activity by half.

The assay in a line: Inhibition of RyR2 R4496C mutant (unknown origin)-mediated store-overload induced calcium release expressed in HEK293 cells after 8 to 10 mins by fura-2/AM dye-based fluorescence assay. The format is cell-based. The conditions noted are these: Homo sapiens.

As for `COc1ccccc1OCCNCC(O)COc1ccc2[nH]cnc2c1` (configuration not stated), the IC50 was more than 1 mM.

Take `COc1ccc2c(c1)N(C)CCCS2`: the IC50 is more than 1 mM.
